pIC50: −log10 of the molar value.
Tests used:
Format in all cases: biochemical
[1] = biological target: CLK1 (Homo sapiens (Human), UniProt P49759); experiment: Inhibition of CLK1 kinase activity evaluated at Nanosyn (ADP-Glo); details: ADP-Glo luminescence
How it was run: (§1)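 Kinase and substrate in pH 7.5 HEPES buffer (5 mM MgCl2, 0.01% Triton X-100, 0.1% BSA) with compound at 1% DMSO; reaction started with ATP, incubated for an assay-specific time. ADP formed detected by ADP-Glo luminescence; %-inhibition versus DMSO and no-enzyme controls.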

[2] = biological target: EGFR Δ746-750/C797S mutant (Homo sapiens (Human), UniProt P00533, C797S/DEL746-750); experiment: HotSpot radiometric kinase assay, EGFR Δ746-750/C797S mutant; details: 10 μM ATP
Chain of EGFR Δ746-750/C797S mutant (P00533 other isoform, or with tags, fused parts or gaps C797S/del 1-668/del 746-750 limits assumed): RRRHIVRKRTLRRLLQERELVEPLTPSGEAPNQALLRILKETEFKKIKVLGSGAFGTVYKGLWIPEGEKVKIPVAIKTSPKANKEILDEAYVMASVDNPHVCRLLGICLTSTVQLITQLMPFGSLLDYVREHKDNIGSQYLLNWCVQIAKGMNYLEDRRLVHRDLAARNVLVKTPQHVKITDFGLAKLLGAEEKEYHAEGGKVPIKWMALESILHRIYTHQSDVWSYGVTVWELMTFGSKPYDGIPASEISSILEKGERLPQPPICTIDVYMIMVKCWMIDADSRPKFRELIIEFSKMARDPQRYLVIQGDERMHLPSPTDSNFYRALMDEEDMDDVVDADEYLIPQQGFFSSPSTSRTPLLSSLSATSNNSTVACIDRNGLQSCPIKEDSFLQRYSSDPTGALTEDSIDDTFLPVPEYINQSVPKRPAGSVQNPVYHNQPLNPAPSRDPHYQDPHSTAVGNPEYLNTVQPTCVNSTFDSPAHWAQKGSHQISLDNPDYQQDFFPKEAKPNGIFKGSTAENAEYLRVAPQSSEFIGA
How it was run: (§2)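 IC50 values come from curve fits of ^33P incorporation captured on P81 filters after acid washing. Kinase reactions ran 120 min at room temperature with 10 μM ATP, added about 20 min after compound. Buffer was Hepes pH 7.5 containing Mg, DTT and 1% DMSO.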

[3] = biological target: EGFR WT (Homo sapiens (Human), UniProt P00533); experiment: HotSpot radiometric kinase assay (Reaction Biology), EGFR WT; details: 10 μM ATP
How it was run: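 IC50 values derive from curve fits of 33P incorporation measured by P81 filter binding. ATP was 10 μM final; incubation lasted 120 min at room temperature after ~20 min compound preincubation.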

[4] = biological target: CLK3 (Homo sapiens (Human), UniProt P49761); experiment: Inhibition of CLK3 kinase activity evaluated at Nanosyn (ADP-Glo); details: ADP-Glo luminescence
How it was run: as §1

[5] = biological target: CLK2 (Homo sapiens (Human), UniProt P49760); experiment: Inhibition of CLK2 kinase activity evaluated at Nanosyn (ADP-Glo); details: ADP-Glo luminescence
Chain of CLK2 (P49760 whole entry): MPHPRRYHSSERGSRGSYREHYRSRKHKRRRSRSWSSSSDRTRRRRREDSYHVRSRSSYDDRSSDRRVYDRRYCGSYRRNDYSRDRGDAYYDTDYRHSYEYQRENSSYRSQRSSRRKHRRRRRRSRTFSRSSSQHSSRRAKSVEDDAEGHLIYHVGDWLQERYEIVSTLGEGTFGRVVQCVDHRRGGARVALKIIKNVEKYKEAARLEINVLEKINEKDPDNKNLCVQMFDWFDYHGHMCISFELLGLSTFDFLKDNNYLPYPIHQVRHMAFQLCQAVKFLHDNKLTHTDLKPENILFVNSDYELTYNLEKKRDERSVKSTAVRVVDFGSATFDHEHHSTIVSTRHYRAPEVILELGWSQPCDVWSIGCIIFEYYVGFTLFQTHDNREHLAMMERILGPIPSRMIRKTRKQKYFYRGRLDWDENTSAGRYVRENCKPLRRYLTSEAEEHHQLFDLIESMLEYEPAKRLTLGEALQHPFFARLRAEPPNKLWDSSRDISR
How it was run: as §1

[6] = biological target: EGFR L858R/T790M mutant (Homo sapiens (Human), UniProt P00533, L858R/T790M); experiment: HotSpot radiometric kinase assay, EGFR L858R/T790M mutant; details: 10 μM ATP
Chain of EGFR L858R/T790M mutant (P00533 25-1210 T790M/L858R): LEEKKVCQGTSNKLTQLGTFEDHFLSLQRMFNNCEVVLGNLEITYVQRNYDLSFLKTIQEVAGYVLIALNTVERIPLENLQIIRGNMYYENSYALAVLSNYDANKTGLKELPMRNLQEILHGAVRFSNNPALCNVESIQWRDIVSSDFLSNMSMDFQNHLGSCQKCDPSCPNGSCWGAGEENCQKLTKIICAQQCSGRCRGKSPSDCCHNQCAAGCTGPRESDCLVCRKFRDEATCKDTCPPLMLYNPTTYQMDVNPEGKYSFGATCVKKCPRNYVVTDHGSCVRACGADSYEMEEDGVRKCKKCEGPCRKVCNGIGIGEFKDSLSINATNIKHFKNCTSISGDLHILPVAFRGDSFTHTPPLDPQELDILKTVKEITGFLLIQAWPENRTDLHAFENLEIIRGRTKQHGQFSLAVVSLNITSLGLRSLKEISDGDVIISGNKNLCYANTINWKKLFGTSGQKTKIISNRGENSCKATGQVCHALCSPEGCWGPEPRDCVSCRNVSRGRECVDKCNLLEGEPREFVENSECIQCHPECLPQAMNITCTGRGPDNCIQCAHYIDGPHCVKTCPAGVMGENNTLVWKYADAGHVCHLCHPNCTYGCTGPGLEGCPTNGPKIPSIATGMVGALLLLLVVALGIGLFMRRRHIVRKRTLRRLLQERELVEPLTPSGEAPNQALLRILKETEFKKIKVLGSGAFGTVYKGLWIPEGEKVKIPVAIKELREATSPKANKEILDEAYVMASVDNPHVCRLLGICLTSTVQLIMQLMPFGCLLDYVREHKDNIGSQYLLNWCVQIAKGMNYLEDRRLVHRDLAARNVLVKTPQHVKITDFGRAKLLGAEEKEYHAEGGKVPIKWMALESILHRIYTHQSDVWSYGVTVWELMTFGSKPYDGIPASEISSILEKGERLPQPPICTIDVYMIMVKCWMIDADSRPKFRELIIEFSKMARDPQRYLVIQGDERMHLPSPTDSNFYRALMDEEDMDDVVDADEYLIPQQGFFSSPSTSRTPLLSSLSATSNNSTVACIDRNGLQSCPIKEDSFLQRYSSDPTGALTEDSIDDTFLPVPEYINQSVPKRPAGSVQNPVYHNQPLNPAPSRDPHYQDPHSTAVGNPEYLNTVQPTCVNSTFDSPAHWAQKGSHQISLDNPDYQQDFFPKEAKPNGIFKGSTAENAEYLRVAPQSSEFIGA
How it was run: as §2

[7] = biological target: EGFR Δ746-750 mutant (Homo sapiens (Human), UniProt P00533, DEL746-750); experiment: HotSpot radiometric kinase assay, EGFR Δ746-750 mutant; details: 10 μM ATP
Chain of EGFR Δ746-750 mutant (P00533 other isoform, or with tags, fused parts or gaps del 1-668/del 746-750 limits assumed): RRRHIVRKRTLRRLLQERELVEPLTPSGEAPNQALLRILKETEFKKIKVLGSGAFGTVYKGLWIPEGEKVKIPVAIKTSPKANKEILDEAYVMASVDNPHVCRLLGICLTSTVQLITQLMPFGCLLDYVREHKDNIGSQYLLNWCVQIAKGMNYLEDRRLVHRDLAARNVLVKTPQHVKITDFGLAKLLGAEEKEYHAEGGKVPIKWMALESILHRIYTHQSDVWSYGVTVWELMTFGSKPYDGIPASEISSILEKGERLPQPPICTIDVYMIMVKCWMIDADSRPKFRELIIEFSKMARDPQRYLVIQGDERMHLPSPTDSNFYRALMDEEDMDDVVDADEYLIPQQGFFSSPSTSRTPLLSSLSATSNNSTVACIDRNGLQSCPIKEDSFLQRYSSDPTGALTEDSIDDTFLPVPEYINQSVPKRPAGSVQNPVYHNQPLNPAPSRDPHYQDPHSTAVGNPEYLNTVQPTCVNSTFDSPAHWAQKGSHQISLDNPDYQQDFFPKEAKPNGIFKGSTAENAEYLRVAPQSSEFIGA
How it was run: as §2

[8] = biological target: EGFR L858R mutant (Homo sapiens (Human), UniProt P00533, L858R); experiment: HotSpot radiometric kinase assay, EGFR L858R mutant; details: 10 μM ATP
Chain of EGFR L858R mutant (P00533 25-1210 L858R): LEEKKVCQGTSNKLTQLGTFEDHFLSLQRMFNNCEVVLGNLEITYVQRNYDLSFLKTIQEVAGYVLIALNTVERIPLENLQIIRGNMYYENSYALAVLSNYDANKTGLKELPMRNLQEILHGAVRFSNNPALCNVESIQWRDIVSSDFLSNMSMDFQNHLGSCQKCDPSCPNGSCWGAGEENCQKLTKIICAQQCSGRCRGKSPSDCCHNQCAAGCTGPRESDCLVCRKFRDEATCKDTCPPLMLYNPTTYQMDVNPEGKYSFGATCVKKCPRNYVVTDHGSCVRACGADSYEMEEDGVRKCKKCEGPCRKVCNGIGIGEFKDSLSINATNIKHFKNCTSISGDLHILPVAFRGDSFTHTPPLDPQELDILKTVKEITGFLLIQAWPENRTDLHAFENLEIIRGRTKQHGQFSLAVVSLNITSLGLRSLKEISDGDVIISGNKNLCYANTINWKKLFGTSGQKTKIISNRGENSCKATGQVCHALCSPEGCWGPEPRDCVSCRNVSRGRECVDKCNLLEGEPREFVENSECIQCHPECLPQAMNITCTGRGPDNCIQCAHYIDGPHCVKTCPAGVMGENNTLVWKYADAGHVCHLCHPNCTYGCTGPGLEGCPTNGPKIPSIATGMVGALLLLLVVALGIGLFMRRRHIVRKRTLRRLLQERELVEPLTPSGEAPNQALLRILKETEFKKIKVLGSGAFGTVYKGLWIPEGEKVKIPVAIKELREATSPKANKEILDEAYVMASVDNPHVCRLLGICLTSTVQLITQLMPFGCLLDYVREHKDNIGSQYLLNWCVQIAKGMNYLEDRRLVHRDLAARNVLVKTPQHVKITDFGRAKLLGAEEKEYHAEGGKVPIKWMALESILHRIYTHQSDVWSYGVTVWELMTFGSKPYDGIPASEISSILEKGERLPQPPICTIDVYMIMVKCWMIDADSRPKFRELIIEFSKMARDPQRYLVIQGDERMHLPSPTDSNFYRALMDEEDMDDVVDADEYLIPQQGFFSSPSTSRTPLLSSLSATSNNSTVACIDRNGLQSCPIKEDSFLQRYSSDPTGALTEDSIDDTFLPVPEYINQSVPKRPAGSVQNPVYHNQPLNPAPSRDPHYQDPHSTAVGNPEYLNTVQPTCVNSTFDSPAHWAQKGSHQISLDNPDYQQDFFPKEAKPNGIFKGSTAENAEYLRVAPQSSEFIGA
How it was run: as §2

[9] = biological target: EGFR L858R/T790M/C797S mutant (Homo sapiens (Human), UniProt P00533, C797S/L858R/T790M); experiment: HotSpot radiometric kinase assay, EGFR L858R/T790M/C797S mutant; details: 10 μM ATP
How it was run: as §2

[10] = biological target: CLK4 (Homo sapiens (Human), UniProt Q9HAZ1); experiment: Inhibition of CLK4 kinase activity evaluated at Nanosyn (ADP-Glo); details: ADP-Glo luminescence
How it was run: as §1

[11] = biological target: EGFR (D770_N771insNPG) (Homo sapiens (Human), UniProt P00533, INS770NPG); experiment: HotSpot radiometric kinase assay, EGFR (D770_N771insNPG); details: 10 μM ATP, read-out: EGFR (Δ770_N771insNPG) IC50
Chain of EGFR (D770_N771insNPG) (P00533 other isoform, or with tags, fused parts or gaps del 1-668/ins NPG behind 770 limits assumed): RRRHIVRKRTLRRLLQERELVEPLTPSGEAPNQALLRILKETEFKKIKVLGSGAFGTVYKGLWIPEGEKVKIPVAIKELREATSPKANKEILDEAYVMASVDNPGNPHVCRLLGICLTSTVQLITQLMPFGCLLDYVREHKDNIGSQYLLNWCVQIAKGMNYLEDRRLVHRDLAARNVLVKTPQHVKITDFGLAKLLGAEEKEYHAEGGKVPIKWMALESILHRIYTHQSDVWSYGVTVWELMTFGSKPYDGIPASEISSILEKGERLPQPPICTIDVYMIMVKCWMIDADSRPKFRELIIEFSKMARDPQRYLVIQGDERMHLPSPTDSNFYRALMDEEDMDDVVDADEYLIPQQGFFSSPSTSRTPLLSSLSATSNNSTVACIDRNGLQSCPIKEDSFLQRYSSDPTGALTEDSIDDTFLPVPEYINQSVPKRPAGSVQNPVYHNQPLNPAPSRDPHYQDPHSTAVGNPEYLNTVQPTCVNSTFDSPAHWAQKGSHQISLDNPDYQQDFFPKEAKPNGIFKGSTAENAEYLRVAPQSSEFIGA
How it was run: as §2

Chain of CLK1 (P49759 whole entry): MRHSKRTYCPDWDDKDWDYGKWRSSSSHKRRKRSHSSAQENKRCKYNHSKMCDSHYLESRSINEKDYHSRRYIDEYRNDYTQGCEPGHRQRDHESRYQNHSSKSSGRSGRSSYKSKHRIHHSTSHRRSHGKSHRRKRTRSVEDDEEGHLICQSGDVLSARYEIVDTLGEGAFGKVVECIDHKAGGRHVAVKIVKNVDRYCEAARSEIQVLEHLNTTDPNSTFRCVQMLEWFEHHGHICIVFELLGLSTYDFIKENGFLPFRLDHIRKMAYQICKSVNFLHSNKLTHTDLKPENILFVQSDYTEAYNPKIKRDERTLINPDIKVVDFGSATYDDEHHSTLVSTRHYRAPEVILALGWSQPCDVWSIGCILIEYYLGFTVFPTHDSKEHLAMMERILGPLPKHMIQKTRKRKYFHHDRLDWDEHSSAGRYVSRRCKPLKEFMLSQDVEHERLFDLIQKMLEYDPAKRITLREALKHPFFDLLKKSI

SMILES | pIC50 [1] | pIC50 [2] | pIC50 [3] | pIC50 [4] | pIC50 [5] | pIC50 [6] | pIC50 [7] | pIC50 [8] | pIC50 [9] | pIC50 [10] | pIC50 [11]
CC(C)Oc1nn(CCO)c2c1/C=C/c1n[nH]c3ccc(cc13)-c1cnn(C)c1O[C@@H](C)CN(C)[C@@H]2C [Example 223] | 9.07 | 8.51 | 7.37 | 7.52 | 9.55 | 9.21 | 8.39 | 8.15 | 9.47 | 8.68 | 6.99
CCOc1nn(CCO)c2c1/C=C/c1n[nH]c3ccc(cc13)-c1cnn(C)c1O[C@H](C)CNC2 [Example 197, 2-[(10R,17E)-16-ethoxy-8,10-dimethyl-2,8,10,11,12,13-hexahydro-14H-3,5-ethenotripyrazolo[3,4-f:3′,4′-j:4″,3″- n][1,4]oxazacyclopentadecin-14-yl]ethan-1-ol] | 8.94 | 7.53 | 6.71 | 7.10 | 8.51 | 8.34 | 7.21 | 7.02 | 8.66 | 8.80 | 6.66
CCN1Cc2c(c(C)nn2C)/C=C/c2n[nH]c3ccc(cc23)-c2cnn(C)c2O[C@@H](C)C1 [Example 165, (10S,17E)-12-ethyl-8,10,14,16-tetramethyl-2,10,11,12,13,14-hexahydro-8H-3,5-ethenotripyrazolo[3,4-f:3′,4′-j:4″,3″-n][1,4]oxazacyclopentadecine] | 10.00 | 8.63 | 7.54 | 7.14 | 10.70 | 9.33 | 8.32 | 8.22 | 9.36 | 9.72 | 7.72
Cc1c2c(nn1C)/C=C/c1n[nH]c3ccc(cc13)-c1cnn(C)c1O[C@@H](C)CN(C)C2 [Example 126, (10S,17E)-8,10,12,14,15-pentamethyl-2,10,11,12,13,15-hexahydro-8H-3,5-ethenotripyrazolo[4,3-f:3′,4′-j:4″,3″-n][1,4]oxazacyclopentadecine] | 9.49 | 7.70 | 6.78 | 6.73 | 9.92 | 8.68 | 7.79 | 7.73 | 8.55 | 9.31 | 6.88
Cc1nn(C)c2c1/C=C/c1n[nH]c3ccc(cc13)-c1cnn(C)c1O[C@H]1CCCN(C2)C1 [Example 176, (10S,19E)-8,16,18-trimethyl-2,8,10,11,12,13,15,16-octahydro-3,5-etheno-10,14-methanotripyrazolo[3,4-h:3′,4′-l:4″,3″- p][1,6]oxazacycloheptadecine] | 8.81 | 7.45 | 6.82 | 6.00 | 7.93 | 8.16 | 7.60 | 7.26 | 7.88 | 8.84 | 7.08
CC(C)Oc1nn(CCO)c2c1/C=C/c1n[nH]c3ccc(cc13)-c1cnn(C)c1OCC(CF)N(C)C2 (centres unmarked) [Example 226, 2-{(17E)-11-(fluoromethyl)-8,12-dimethyl-16-[(propan-2-yl)oxy]-2,8,10,11.12,13-hexahydro-14H-3,5-ethenotripyrazolo[3,4-f:3′,4′-j:4″,3″-n][1,4]oxazacyclopentadecin-14-yl}ethan-1-ol] | 9.06 | 8.19 | 6.92 | 6.43 | 9.00 | 8.92 | 8.05 | 7.29 | 9.22 | 8.84 | 6.65
CCOc1nccc2c1/C=C/c1n[nH]c3ccc(cc13)-c1cnn(C)c1O[C@@H](C)CN(C)C2 [Example 240, (10S,18E)-17-ethoxy-8,10,12-trimethyl-2,8,10,11,12,13-hexahydro-3,5-ethenodipyrazolo[3,4-j:4′,3′-n]pyrido[4,3-f][1,4]oxazacyclopentadecine] | 8.95 | 6.19 | < 6.00 | 6.00 | 7.90 | 8.23 | 6.08 | 6.11 | 7.98 | 8.82 | < 6.00

— US20250353864A1, “INDAZOLE CONTAINING MACROCYCLES AND THEIR USE” (BLOSSOMHILL THERAPEUTICS, INC., priority 2022, published 2025)
